Assay results: PMC4115230, “Lipid–Protein Nanodiscs Offer New Perspectives for Structural and Functional Studies of Water-Soluble Membrane-Active Peptides” (Acta Naturae, 2014)
“Also recorded” adds a separate entry of the source. Where no end group is shown, it is not given here.

Assays:
[1] = system: MSP (44-243 fragment of human apolipoprotein A1); assay: NMR titration binding isotherm with MSP
Experimental: (§1) The recombinant 44–243 fragment of the human apolipoprotein A1 with a N-terminal sequence of six His residues was used as an MSP protein. The purified MSP protein, obtained as described in [20], was mixed at a molar ratio of 1 : 75 with lipids in the presence of a detergent, sodium cholate (2 : 1 cholate/lipids molar ratio), and the mixture was incubated at 4 °C for 3 h. When using saturated lipids (DLPC, DLPG), the reaction temperature was kept not lower than 25 °C. Spontaneous LPN assembly was initiated by detergent sorption to the Bio-Beads™ resin (Bio-Rad, USA) for 1.5 h. Purification of the nanodiscs was performed on a Ni^2+ Sepharose 6 Fast Flow resin (GE Healthcare, USA) equilibrated with buffer A (20 mM Tris-HCl, 0.5 M NaCl, 1 mM NaN3, pH 8.0). After loading the reaction mixture, the resin was washed with a fivefold volume of buffer A. LPNs were eluted with buffer A containing 100 mM imidazole. The MSP concentration was determined spectrophotometrically by absorbance at λ = 280 nm. The LPN concentration was determined by assuming that each nanodisc contained two MSP molecules.
(§2) NMR spectra were acquired at 40–45 °C on AVANCE -700 and AVANCE -III-800 spectrometers (Bruker, Germany) equipped with cryogenically cooled triple-resonance probes at the proton resonance frequencies of 700 and 800 MHz, respectively.
(§3) To measure the isotherms of the toxins binding to LPNs and MSP molecules, the VSTx1 and NT II samples ([…], 10 mM Tris-Ac, pH 7.0) were titrated with solutions of nanodiscs (70 μM) of various lipid compositions or with a MSP solution (0.7 mM). The 1D 1H-NMR spectrum was acquired at each point. A data analysis was performed assuming that the intensity of the observed NMR signals of a peptide is proportional to its equilibrium concentration in solution ([P]free). The binding curves were fitted either to the partition equilibrium equation (1) or to the Langmuir isotherm equation (2), taking into account the dilution of the initial samples upon titration:
(§4) where [LPN/lipid] is the LPN concentration (assuming that one nanodisc contains two MSP molecules) or the lipid concentration (assuming that one nanodisc contains 150 lipid molecules), [P]boundis the concentration of a peptide bound to LPN ([P]0 = [P]free+ [P]bound), Kpis the partition coefficient, n is the number of binding sites for a peptide on the nanodisc surface, and Knis the affinity constant of the peptide to the binding site on the nanodisc surface.

[2] = system: LPNs; assay: Gel filtration analysis of LPNs after peptide addition (nanodisc integrity, particle size); format: physicochemical; conditions: for nanodisc disruption: 1 mM EDTA, pH 7.4, 280 nm
Experimental: was carried out on a Superdex-200 resin using a Tricorn 5/200 column (GE Healthcare, Sweden) in buffer (10 mM Tris-HCl, 0.1 M NaCl, 1 mM EDTA, 1 mM NaN3, pH 7.4). Thyroglobulin (669 kDa, Stokes radius RH = 8.5 nm), ferritin (440 kDa, RH = 6.1 nm), catalase (232 kDa, RH = 5.22 nm), aldolase (158 kDa, RH = 4.81 nm) BSA (67 kDa, RH = 3.55 nm), and ovalbumin (43 kDa, RH = 3.05 nm) were used as calibration proteins. The flow rate through the column was 0.3 ml/min. Detection was performed at 280 nm. The particle size was determined from the elution volume vs the lgRH calibration curve. All the particle size (diameter) values provided below correspond to twice RH values. ;

[3] = system: K^+ channels; conditions: ref [3]; cited from earlier work
Source text: (§5) The VSTx1 toxin is a small β-structured peptide stabilized by three disulfide bonds which form a “cysteine knot” (Fig. 1). […] According to current data, VSTx1 inhibits the voltage-dependent activation of K^+ channels and uses “membrane catalysis” mechanisms when forming a complex with the voltage-sensing domain of the channel.

[4] = ref [31]; cited from earlier work
Source text: as §5

[5] = buffer containing 150 mM KCl; ref [3]; cited from earlier work
Source text: These differences in the toxin affinity may b ...

[6] = system: LPN/POPC; assay: NMR titration binding isotherm with LPN/POPC nanodiscs
Experimental: as §1, §2, §3, §4

[7] = system: LPN/POPC/DOPG (3 : 1); assay: NMR titration binding isotherm with LPN/POPC/DOPG (3 : 1) nanodiscs
Experimental: as §1, §2, §3, §4

[8] = system: nanodisc surface or MSP molecule; assay: Langmuir analysis of VSTx1 binding to sites on nanodisc surface or MSP; conditions: Langmuir isotherm (eq. 2); range over LPN/POPC, LPN/POPC/DOPG and MSP
Experimental: as §3, §4

[9] = CD spectroscopy; ref [18], [21]; cited from earlier work
[10] = Mean Kyte-Doolittle hydrophobicity index; conditions: among the three studied peptides
Source text: The problems related to the application of LPNbased membrane mimetic media in structural and biophysical studies of water-soluble MPs have yet to be studied. It should be noted that this is far from being a trivial matter, since LPNs, unlike vesicles, bicelles, and micelles, contain an additional component, MSP, which is an anionic protein (charge of –6). In this paper, the interaction of water-soluble MPs with LPNs was studied using three model cationic β-structured peptides (Fig. 1), which have different physicochemical properties and represent three classes of membrane-active compounds. The antimicrobial peptide arenicin-2 (Ar2, 21 AA, 2772 Da, charge of +6, mean Kyte-Doolittle hydrophobicity index is –0.06, The maximum and minimum values of the Kyte-Doolittle hydrophobicity index are +4.5 and –4.5 for poly-Ile and poly-Arg sequences, respectively.) from coelomocytes of the polychaete lugworm Arenicola marina interacts selectively with membranes containing negatively charged lipid molecules and forms oligomeric pores in them. The VSTx1 toxin (34 AA, 4010 Da, charge of +3, hydrophobicity index is –0.27) from Grammostola spatulata spider venom uses the “membrane catalysis” mechanism to interact with the voltage-sensitive domains of K+-channels localized in the cell membrane, and it lacks pore-forming ability. […]

[11] = cited from earlier work
Source text: The cationic AMP, Ar2, contains mainly positively charged and hydrophobic residues and has a β-hairpin structure in water, which is stabilized with one disulfide bond (Fig. 1). […] As expected, the β-hairpins of individual peptides within the pore have a transmembrane orientation, so that the ...

[12] = CD spectroscopy; ref [18], [21]; cited from earlier work; remark: listed apart in the source
[13] = system: LPNs; assay: Opalescence/opacity of LPN solutions on Ar2 addition; format: physicochemical
Experimental: During that study, an aqueous Ar2 solution was added to nanodisc samples. […] An analysis of the sample supernatants by gel filtration confirmed this assumption. […] A similar process is known as high-density lipoprotein remodeling, which can occur both in vitro and in vivo upon the interaction of lipoprotein particles with lipophilic plasma proteins. Previously, nanodisc fusion had been observed in cell-free protein biosynthesis systems with the cotranslational incorporation of membrane proteins into LPNs containing unsaturated lipids. The spontaneous LPN fusion in vitro proceeds very slowly, but it could be considerably accelerated under denaturing conditions.

[14] = ref [12], [15], [20]; cited from earlier work
Source text: (§6) Given that the mechanisms associated with the change in the local curvature of the lipid bilayer (“toroidal” pore formation, bilayer micellization) underlie the action of the overwhelming majority of water- soluble cationic AMPs, we can assume that many of these molecules will have a destructive effect on LPNs. Thus, nanodiscs are probably not suited as a medium for studying these peptides. It should be noted that there are other classes of channel- and pore-forming biomolecules that can be studied in LPN-based media.

[15] = system: LPNs; conditions: ref [12], [15], [20]; cited from earlier work
Source text: as §6

[16] = Superdex-200, 10 mM Tris-HCl, 0.1 M NaCl
[17] = Langmuir isotherm (eq. 2), 10 mM Tris-Ac, pH 7.0, 40–45 °C
[18] = maximum ("up to"), Langmuir isotherm
[19] = partition equilibrium (eq. 1), lipid concentration as non-aqueous phase (150 lipids per nanodisc), 10 mM Tris-Ac, pH 7.0, 40–45 °C, no added salt

Substance: VSTx1 (GSECGKFMWKCKNSNDCCKDLVCSSRWKWCVLASPF; not fully specified; ends and bridges not checked)
- interaction with MSP ([1]; MSP without lipids, 1D 1H-NMR titration, 10 mM Tris-Ac, pH 7.0): weakly interacts; also recorded: weak interaction
- Kn, affinity constant of the peptide to the binding site ([1]; MSP×2, no lipids, Langmuir isotherm (eq. 2), 10 mM Tris-Ac, pH 7.0, 40–45 °C): 0.05 ± 0.02 ×10^6·M^-1
- Kp(LPN, MSP×2), partition coefficient ([1]; MSP×2, no lipids, partition equilibrium (eq. 1), titration with 0.7 mM MSP, 10 mM Tris-Ac, pH 7.0, 40–45 °C): 0.10 ± 0.01 ×10^6·M^-1
- VSTx1 molecules bound per MSP molecule ([1]; in the absence of lipids, each MSP molecule): up to 1.6 VSTx1 molecules
- nanodisc disruption [2, 16]: does not cause their disruption; also recorded: no nanodisc disruption
- diameter of unbound toxin ([2]; Superdex-200, 10 mM Tris-HCl, 0.1 M NaCl, pH 7.4, diameter = 2 RH): ~ 2.0 nm
- voltage-dependent activation of K^+ channels [3]: inhibits
- affinity for interface of phospholipid membranes containing anionic lipids [4]: considerable affinity
- interaction with zwitterionic lipid membranes [4]: weakly interacts
- membrane lytic activity [4]: no membrane lytic activity
- Kp, partition coefficient, vesicles of POPE/POPG (3 : 1) [5]: ~ 2 × 10^3 × 10^3 M^-1
- Kn, affinity constant of the peptide to the binding site on the LPN surface [6, 17]: 0.06 ± 0.01 ×10^6·M^-1
- n, number of binding sites on the LPN surface [6, 17]: 9.6 ± 1.5
- binding to LPNs ([6]; POPC, 1D 1H-NMR titration, 10 mM Tris-Ac, pH 7.0): lower affinity; also recorded: interacts less efficiently
- toxin molecules bound per nanodisc containing POPC (~ 150 molecules) [6, 18]: ~ 10 toxin molecules
- Kp(LPN, MSP×2), partition coefficient ([6]; partition equilibrium (eq. 1), LPN concentration as non-aqueous phase, 1D 1H-NMR titration, 10 mM Tris-Ac, pH 7.0, 40–45 °C, no added salt): 0.39 ± 0.02 ×10^6·M^-1
- Kp(Lipids), partition coefficient [6, 19]: 2.6 ± 0.2 ×10^3·M^-1
- Kn, affinity constant of the peptide to the binding site on the LPN surface [7, 17]: 0.13 ± 0.02 ×10^6·M^-1
- n, number of binding sites on the LPN surface [7, 17]: 34.5 ± 3.9
- binding to LPNs ([7]; POPC/DOPG, 3 : 1, 1D 1H-NMR titration, 10 mM Tris-Ac, pH 7.0): effectively binds; also recorded: interacts effectively with LPNs containing anionic lipids
- lipid molecules per toxin molecule ([7]; at ~ 35 binding sites per nanodisc): ~ 4 lipid molecules per toxin molecule
- number of binding sites with negatively charged lipids added [7, 18]: ~ 35
- Kp(LPN, MSP×2), partition coefficient ([7]; partition equilibrium (eq. 1), LPN concentration as non-aqueous phase, 10 mM Tris-Ac, pH 7.0, 40–45 °C, no added salt): 2.68 ± 0.24 ×10^6·M^-1
- Kp(Lipids), partition coefficient [7, 19]: 17.8 ± 1.6 ×10^3·M^-1
- Kn, affinity to the sites on the nanodisc surface or on a MSP molecule [8]: 50000 to 130000 M⁻¹

Substance: arenicin-2 (RWCVYAYVRIRGVLVRYRRCW; not fully specified; ends and bridges not checked; UniProt Q5SC59 182-202, looked up) [Ar2, antimicrobial peptide (21 AA) from coelomocytes of the polychaete lugworm Arenicola marina]
- interaction with POPC vesicles/liposomes [9]: does not interact
- relative hydrophobicity [10]: most hydrophobic among the studied peptides
- size of large complexes ([2]; Ar2/LPN sample supernatants, Superdex-200, pH 7.4, diameter = 2 RH): ~ 15 nm
- nanodisc disruption [2, 16]: causes nanodisc fusion, accompanied by the release of MSP molecules
- nanodisc disruption ([2]; Superdex-200, 10 mM Tris-HCl, 0.1 M NaCl, listed as arenicin-2): disintegrates LPNs
- bilayer micellization ([11]; at high concentrations, ref [24]): probably causes bilayer micellization
- interaction with membranes containing negatively charged lipids ([11]; ref [18]): interacts selectively with membranes containing negatively charged lipid molecules and creates in them oligomeric pores
- binding to DOPG liposomes [12]: binds with high affinity
- LPN solution turbidity ([13]; equimolar concentrations (Ar2/LPN = 1 : 1) and higher): opaque
- LPN solution turbidity ([13]; small peptide concentrations added): strongly opalescent

Substance: antiamoebin I
- upper limit of solubility in water [14]: 30 µM
- complex formation with LPNs [15]: formation of stable complexes
